# Assay results: ChEMBL document CHEMBL1629468, “Synthesis and antitumor activity of novel benzimidazole-5-carboxylic acid derivatives and their transition metal complexes as topoisomerease II inhibitors” (2010)
# Columns and labels:
# [1] = Growth inhibition of human gastric cancer cells after 72 hrs by sulforhodamine B assay; assay type: functional; settings: Cancer cell lines, Stomach, pooled result: one value given for 3 cell lines, strains, targets or settings
# [2] = system: Cancer cell lines; experiment: Ratio of compound GI50 to etoposide GI50 for human lung cancer cells; assay type: functional
# [3] = system: Cancer cell lines; experiment: Ratio of compound GI50 to etoposide GI50 for human colon cancer cells; assay type: functional
# [4] = system: Cancer cell lines; experiment: Ratio of compound GI50 to etoposide GI50 for human gastric cancer cells; assay type: functional, Stomach
# [5] = molecular target: DNA topoisomerase 2-alpha (Mus musculus) (UniProt Q01320); experiment: Ratio of compound to etoposide on inhibitory effect of mouse DNA topoisomerase 2
# Chain of DNA topoisomerase 2-alpha (Mus musculus) (Q01320 whole entry): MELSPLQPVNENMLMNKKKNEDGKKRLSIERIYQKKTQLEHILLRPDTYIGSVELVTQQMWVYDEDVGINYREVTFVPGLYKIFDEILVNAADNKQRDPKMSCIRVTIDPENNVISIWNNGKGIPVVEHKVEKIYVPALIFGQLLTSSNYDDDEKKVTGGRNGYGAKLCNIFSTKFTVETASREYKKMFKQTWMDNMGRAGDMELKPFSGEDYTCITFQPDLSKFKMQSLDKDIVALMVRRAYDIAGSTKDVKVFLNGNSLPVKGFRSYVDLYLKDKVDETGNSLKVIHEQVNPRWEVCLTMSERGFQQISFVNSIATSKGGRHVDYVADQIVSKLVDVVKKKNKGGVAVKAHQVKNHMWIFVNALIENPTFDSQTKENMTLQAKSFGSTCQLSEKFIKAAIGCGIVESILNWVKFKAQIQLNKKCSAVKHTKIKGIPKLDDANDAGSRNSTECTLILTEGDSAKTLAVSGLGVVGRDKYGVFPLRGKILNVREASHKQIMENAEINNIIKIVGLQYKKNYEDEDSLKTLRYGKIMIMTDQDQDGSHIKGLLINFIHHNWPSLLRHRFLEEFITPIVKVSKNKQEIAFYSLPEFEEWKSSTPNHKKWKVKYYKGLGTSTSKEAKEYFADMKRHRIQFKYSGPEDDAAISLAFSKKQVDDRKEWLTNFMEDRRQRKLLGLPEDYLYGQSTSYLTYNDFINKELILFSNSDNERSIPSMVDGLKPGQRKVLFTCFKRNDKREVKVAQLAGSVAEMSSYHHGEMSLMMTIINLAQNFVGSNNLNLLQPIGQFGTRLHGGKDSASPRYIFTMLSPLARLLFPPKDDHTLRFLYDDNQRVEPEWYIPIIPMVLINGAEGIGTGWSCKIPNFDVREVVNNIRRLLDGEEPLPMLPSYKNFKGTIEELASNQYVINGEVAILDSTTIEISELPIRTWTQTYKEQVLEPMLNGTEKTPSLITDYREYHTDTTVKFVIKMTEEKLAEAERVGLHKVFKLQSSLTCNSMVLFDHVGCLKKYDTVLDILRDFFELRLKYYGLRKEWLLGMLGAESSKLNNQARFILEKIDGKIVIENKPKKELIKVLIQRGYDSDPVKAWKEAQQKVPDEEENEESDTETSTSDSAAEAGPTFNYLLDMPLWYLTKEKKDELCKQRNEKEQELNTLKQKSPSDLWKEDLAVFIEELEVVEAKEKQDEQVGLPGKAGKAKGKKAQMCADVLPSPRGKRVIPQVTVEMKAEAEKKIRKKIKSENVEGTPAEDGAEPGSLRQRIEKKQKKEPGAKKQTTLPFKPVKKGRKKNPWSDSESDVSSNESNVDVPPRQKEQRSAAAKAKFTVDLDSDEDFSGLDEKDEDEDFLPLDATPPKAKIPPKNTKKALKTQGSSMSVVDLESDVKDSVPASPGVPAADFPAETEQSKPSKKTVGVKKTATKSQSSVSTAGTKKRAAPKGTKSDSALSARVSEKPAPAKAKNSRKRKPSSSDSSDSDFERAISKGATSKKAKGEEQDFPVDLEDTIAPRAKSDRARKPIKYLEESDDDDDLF
Compound,GI50 [1],further results
O=C(O)c1ccc2[nH]c(CNc3nc4ccccc4[nH]3)nc2c1,> 100 µM,
COc1cccc2c1C(=O)c1c(O)c3c(c(O)c1C2=O)C[C@@](O)(C(=O)CO)C[C@@H]3O[C@H]1C[C@H](N)[C@H](O)[C@H](C)O1 [DOXORUBICIN],0.065 µM,
O=C(O)c1ccc2[nH]c(CCl)nc2c1,> 100 µM,
O=C(O)c1ccc2[nH]c(CNc3ccncc3)nc2c1,17 µM,
O=C(O)c1ccc2[nH]c(CNc3ccccn3)nc2c1,22 µM,
CCc1c2c(nc3ccc(O)cc13)-c1cc3c(c(=O)n1C2)COC(=O)[C@]3(O)CC [7-ETHYL-10-HYDROXYCAMPTOTHECIN],0.066 µM,
COc1cc([C@@H]2c3cc4c(cc3[C@@H](O[C@@H]3O[C@@H]5CO[C@@H](C)O[C@H]5[C@H](O)[C@H]3O)[C@H]3COC(=O)[C@H]23)OCO4)cc(OC)c1O [ETOPOSIDE],1.3 µM,
O=C(O)c1ccc2[nH]c(CNc3nccs3)nc2c1,47 µM,
O=C(O)c1ccc2[nH]c(C[n+]3ccccc3)nc2c1.[Cl-],0.095 µM,RatioGI50 [2]: 7; RatioGI50 [3]: 7; RatioGI50 [4]: 7; Ratio [5]: 10
